# Data published in patent US8906852B2 (MethylGene Inc., priority 2010, dated 2014).
# Where a name gives a salt, the structure may show the parent alone.
# Biological target: T1, VEGFR/KDR (Homo sapiens, UniProt P35968)
# T1 construct: made in house; host or cells: Sf9 cells (Spodoptera frugiperda), baculovirus
# Assay: VEGFR/KDR kinase inhibition, DELFIA assay
# Type: biochemical
# Settings: ATP 0.6 uM (2x Km), enzyme 5 nM
# Outline: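 DELFIA time-resolved fluorescence readout using Europium-tagged anti-phosphotyrosine antibody after EDTA stop. Kinase reaction on plate-bound poly(Glu4,Tyr) ran 10-30 min at 30° C with 5 nM enzyme and 0.6 uM ATP (2× Km), following 4 min on-ice pre-incubation with compound; IC50 over a concentration range.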
# T1 sequence (P35968 806-1356): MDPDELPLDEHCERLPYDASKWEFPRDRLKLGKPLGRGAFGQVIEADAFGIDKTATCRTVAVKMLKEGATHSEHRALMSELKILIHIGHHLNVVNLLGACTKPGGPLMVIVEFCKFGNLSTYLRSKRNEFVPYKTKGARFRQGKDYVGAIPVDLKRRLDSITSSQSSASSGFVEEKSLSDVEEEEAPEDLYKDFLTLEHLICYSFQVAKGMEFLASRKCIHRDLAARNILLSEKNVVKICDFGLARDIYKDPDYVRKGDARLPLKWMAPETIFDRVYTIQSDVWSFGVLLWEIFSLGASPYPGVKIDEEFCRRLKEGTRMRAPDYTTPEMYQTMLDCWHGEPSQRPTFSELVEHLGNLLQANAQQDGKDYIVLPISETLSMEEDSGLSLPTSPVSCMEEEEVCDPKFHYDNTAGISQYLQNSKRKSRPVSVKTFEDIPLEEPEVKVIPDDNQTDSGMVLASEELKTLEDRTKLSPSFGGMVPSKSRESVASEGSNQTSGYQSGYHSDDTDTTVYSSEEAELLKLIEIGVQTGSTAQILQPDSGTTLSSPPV
row,Compound,IC50
1,COCCN(Cc1ccc(-c2cc3nccc(Oc4ccc(NC(CC(=O)Nc5ccc(F)cc5)C(F)(F)F)cc4F)c3s2)nc1)C(C)=O (centres unmarked) [Compound 39],< 50 nM
2,CCOC(=O)NC1CCN(Cc2ccc(-c3cc4nccc(Oc5ccc(NC(=O)NC6CC6)cc5F)c4s3)nc2)CC1 [Compound 351],< 50 nM
3,"CC(=O)OC1CN(C(=O)c2cc3nccc(Oc4ccc(NC(=O)NC5CC5)cc4F)c3s2)C1 [Compound 469, 1-(7-(4-(3-cyclopropylureido)-2-fluorophenoxy)thieno[3,2-b]pyridine-2-carbonyl)azetidin-3-yl acetate]",< 50 nM
4,"1-(2-(6-(7-(2-fluoro-4-nitrophenoxy)thieno[3,2-b]pyridin-2-yl)pyridin-3-yl)ethyl)pyrrolidin-2-one [Compound 293]",< 50 nM
5,CCNC(=O)N1CCN(C(=O)c2ccc(-c3cc4nccc(Oc5ccc(NC(=O)NC6CC6)cc5F)c4s3)nc2)CC1 [Compound 557],< 50 nM
6,"COCCN(CCn1cnc(-c2cc3nccc(Oc4ccc(NC(=O)NC5CC5)cc4F)c3s2)c1)C(C)=O [Compound 254-A, N-(2-(4-(7-(4-(3-cyclopropylureido)-2-fluorophenoxy)-thieno[3,2-b]pyridin-2-yl)-1H-imidazol-1-yl)ethyl)-N-(2-methoxyethyl)acetamide]",< 50 nM
7,"COCCNCc1ccc(-c2cc3nccc(Oc4ccc(NC(=S)NC5CC5)cc4F)c3s2)nc1 [Compound 502, 1-Cyclopropyl-3-(3-fluoro-4-(2-(5-((2-methoxyethylamino)methyl)pyridin-2-yl)thieno[3,2-b]pyridin-7-yloxy)phenyl)thiourea]",< 50 nM
8,CNC(=O)c1cc2nccc(Oc3ccc(NC(=O)NC4CC4)cc3F)c2s1 [Compound 444],< 50 nM
9,CNC(=O)N(C)C1CCN(Cc2ccc(-c3cc4nccc(Oc5ccc(NC(=O)NC6CC6)cc5F)c4s3)nc2)CC1 [Compound 410],< 50 nM
10,"CN1CCN(CCNC(=O)c2ccc(-c3cc4nccc(Oc5ccc(NC(=O)NC6CC6)cc5F)c4s3)nc2)CC1 [Compound 233, 6-(7-(4-(3-cyclopropylureido)-2-fluorophenoxy)thieno[3,2-b]pyridin-2-yl)-N-(2-(4-methylpiperazin-1-yl)ethyl)nicotinamide formate salt]",< 50 nM
11,COC(=O)[C@@H]1CCCN1C(=O)c1cc2nccc(Oc3ccc(NC(=O)NC4CC4)cc3F)c2s1 [Compound 449],< 50 nM
12,"CN1CCN(C(=O)C2CN(Cc3ccc(-c4cc5nccc(Oc6ccc(NC(=O)NC7CC7)cc6F)c5s4)nc3)C2)CC1 [Compound 489, 1-cyclopropyl-3-(3-fluoro-4-(2-(5-((3-(4-methylpiperazine-1-carbonyl)azetidin-1-yl)methyl)pyridin-2-yl)thieno[3,2-b]pyridin-7-yloxy)phenyl)urea]",< 50 nM
13,"CCC(=O)N(CCOC)Cc1ccc(-c2cc3nccc(Oc4ccc(NC(=O)NC5CC5)cc4F)c3s2)nc1 [Compound 86, N-((6-(7-(4-(3-cyclopropylureido)-2-fluorophenoxy)thieno[3,2-b]pyridin-2-yl)pyridin-3-yl)methyl)-N-(2-methoxyethyl)propionamide]",< 50 nM
14,"CN1CCN(C(=O)C2CCCN(C(=O)c3cc4nccc(Oc5ccc(NC(=O)NC6CC6)cc5F)c4s3)C2)CC1 (centres unmarked) [Compound 473, 1-cyclopropyl-3-(3-fluoro-4-(2-(3-(4-methylpiperazine-1-carbonyl)piperidine-1-carbonyl)thieno[3,2-b]pyridin-7-yloxy)phenyl)urea]",< 50 nM
15,"CC(=O)OCC(=O)N1CCN(Cc2ccc(-c3cc4nccc(Oc5ccc(NC(=O)NC6CC6)cc5F)c4s3)nc2)CC1 [Compound 310, 2-(4-((6-(7-(4-(3-cyclopropylureido)-2-fluorophenoxy)thieno[3,2-b]pyridin-2-yl)pyridin-3-yl)methyl)piperazin-1-yl)-2-oxoethyl acetate]",< 50 nM
16,"O=C(O)CN1CCN(Cc2ccc(-c3cc4nccc(Oc5ccc(NC(=O)NC6CC6)cc5F)c4s3)nc2)CC1 [Compound 61, 2-(4-((6-(7-(4-(3-cyclopropylureido)-2-fluorophenoxy)thieno[3,2-b]pyridin-2-yl)pyridin-3-yl)methyl)piperazin-1-yl)acetic acid]",< 50 nM
17,"COCCOCCOCCOCCNC(=O)c1ccc(-c2cc3nccc(Oc4ccc(NC(=O)NC5CC5)cc4F)c3s2)nc1 [Compound 229, 6-(7-(4-(3-cyclopropylureido)-2-fluorophenoxy)thieno[3,2-b]pyridin-2-yl)-N-(2,5,8,11-tetraoxatridecan-13-yl)nicotinamide]",< 50 nM
18,"COCCN(Cc1cnc(-c2cc3nccc(Oc4ccc(NC(=O)NC(C)C)cc4F)c3s2)n1C)C(C)=O [Compound 117-A, N-((2-(7-(2-fluoro-4-(3-isopropylureido)phenoxy)thieno[3,2-b]-pyridin-2-yl)-1-methyl-1H-imidazol-5-yl)methyl)-N-(2-methoxyethyl)acetamide]",50 to 100 nM
19,"O=C(Nc1ccc(Oc2ccnc3cc(-c4ccc(CN5CCC(F)(F)C5)cn4)sc23)c(F)c1)NC1CC1 [Compound 315, 1-cyclopropyl-3-(4-(2-(5-((3,3-difluoropyrrolidin-1-yl)methyl)pyridin-2-yl)thieno[3,2-b]pyridin-7-yloxy)-3-fluorophenyl)urea]",< 50 nM
20,"O=C(Nc1ccc(Oc2ccnc3cc(-c4ccc(CN5CC[C@H](O)C5=O)cn4)sc23)c(F)c1)NC1CC1 [Compound 110, (S)-1-cyclopropyl-3-(3-fluoro-4-(2-(5-((3-hydroxy-2-oxopyrrolidin-1-yl)methyl)pyridin-2-yl)thieno[3,2-b]pyridin-7-yloxy)phenyl)urea]",< 50 nM

# Results, then the compound that gave them:
row,IC50,Compound
1,< 50 nM,"CC(C)NC(=O)Nc1ccc(Oc2ccnc3cc(-c4ccc(CN5CCCOC5=O)cn4)sc23)c(F)c1 [Compound 201, 1-(3-fluoro-4-(2-(5-((2-oxo-1,3-oxazinan-3-yl)methyl)pyridin-2-yl)thieno[3,2-b]pyridin-7-yloxy)phenyl)-3-isopropylurea]"
2,< 50 nM,CC(C)(O)CN1CCN(Cc2ccc(-c3cc4nccc(Oc5ccc(NC(=O)NC6CC6)cc5F)c4s3)nc2)CC1 [Compound 570]
3,< 50 nM,CN1CCN(C(=O)Cn2cc(-c3cc4nccc(Oc5ccc(NC(=O)NC6CC6)cc5F)c4s3)nn2)CC1 [Compound 365]
4,< 50 nM,CN(CCO)C(=O)C1CCN(Cc2ccc(-c3cc4nccc(Oc5ccc(NC(=O)NC6CC6)cc5F)c4s3)nc2)CC1 [Compound 484]
5,< 50 nM,"CC(C)NC(=O)Nc1ccc(Oc2ccnc3cc(-c4ncc(CN5CCOCC5)n4C)sc23)c(F)c1 [Compound 299, 1-(3-fluoro-4-(2-(1-methyl-5-(morpholinomethyl)-1H-imidazol-2-yl)thieno[3,2-b]pyridin-7-yloxy)phenyl)-3-isopropylurea]"
6,< 50 nM,"C[C@@H]1CN(Cc2ccc(-c3cc4nccc(Oc5ccc(NC(=O)NC6CC6)cc5F)c4s3)nc2)C[C@H](C)N1C(=O)CO [Compound 531, 1-cyclopropyl-3-(3-fluoro-4-(2-(5-(((3S,5R)-4-(2-hydroxyacetyl)-3,5-dimethylpiperazin-1-yl)methyl)pyyridin-2-yl)thieno[3,2-b]pyridin-7-yloxy)phenyl)urea]"
7,< 50 nM,"Cn1c(C(=O)N2CCCC2)cnc1-c1cc2nccc(Oc3ccc(NC(=O)NC4CC4)cc3F)c2s1 [Compound 222, 1-cyclopropyl-3-(3-fluoro-4-(2-(1-methyl-5-(pyrrolidine-1-carbonyl)-1H-imidazol-2-yl)thieno[3,2-b]pyridin-7-yloxy)phenyl)urea]"
8,< 50 nM,"CC(C)[C@H](N)C(=O)N1CCN(Cc2ccc(-c3cc4nccc(Oc5ccc(NC(=O)NC6CC6)cc5F)c4s3)nc2)CC1 [Compound 76, (S)-1-(4-(2-(5-((4-(2-amino-3-methylbutanoyl)piperazin-1-yl)methyl)pyridin-2-yl)thieno[3,2-b]pyridin-7-yloxy)-3-fluorophenyl)-3-cyclopropylurea]"
9,< 50 nM,"CN(CCF)C1CCN(Cc2ccc(-c3cc4nccc(Oc5ccc(NC(=O)NC6CC6)cc5F)c4s3)nc2)CC1 [Compound 421, 1-Cyclopropyl-3-(3-fluoro-4-(2-(5-((4-((2-fluoroethyl)(methyl)amino)piperidin-1-yl)methyl)pyridin-2-yl)thieno[3,2-b]pyridin-7-yloxy)phenyl)urea]"
10,< 50 nM,"O=C(Nc1ccc(Oc2ccnc3cc(-c4ccc(CN5CCCN(C(=O)CO)CC5)cn4)sc23)c(F)c1)NC1CC1 [Compound 526, 1-cyclopropyl-3-(3-fluoro-4-(2-(5-((4-(2-hydroxyacetyl)-1,4-diazepan-1-yl)methyl)pyridin-2-yl)thieno[3,2-b]-pyridin-7-yloxy)phenyl)urea]"
11,< 50 nM,"COCCNCCc1ccc(-c2cc3nccc(Oc4ccc(NC(=O)Nc5cc(C)on5)cc4F)c3s2)nc1 [Compound 183, 1-(3-fluoro-4-(2-(5-(2-(2-methoxyethylamino)ethyl)pyridin-2-yl)thieno[3,2-b]pyridin-7-yloxy)phenyl)-3-(5-methylisoxazol-3-yl)urea]"
12,< 50 nM,"CN1CCC(CN2CCN(Cc3ccc(-c4cc5nccc(Oc6ccc(NC(=O)NC7CC7)cc6F)c5s4)nc3)CC2)CC1 [Compound 54-D, 1-cyclopropyl-3-(3-fluoro-4-(2-(5-((4-((1-methylpiperidin-4-yl)methyl)piperazin-1-yl)methyl)pyridin-2-yl)thieno[3,2-b]pyridin-7-yloxy)phenyl)urea]"
13,< 50 nM,COC(=O)[C@@H]1CCCN1Cc1ccc(-c2cc3nccc(Oc4ccc(NC(=O)NC5CC5)cc4F)c3s2)nc1 [Compound 476]
14,< 50 nM,"COCCN(Cc1ccc(-c2cc3nccc(Oc4ccc(NC(=O)NC5CC5)c(F)c4F)c3s2)nc1)C(=O)CO [Compound 259-A, N-((6-(7-(4-(3-cyclopropylureido)-2,3-difluorophenoxy)thieno[3,2-d]pyridin-2-yl)pyridin-3-yl)methyl)-2-hydroxy-N-(2-methoxyethyl)acetamide]"
15,< 50 nM,O=C(Cn1cc(-c2cc3nccc(Oc4ccc(NC(=O)NC5CC5)cc4F)c3s2)nn1)NCc1ccccn1 [Compound 383]
